Earlier results as cited in patent publication US20060009656A1, “METHOD OF PRODUCING BETAINE COMPOUND” (priority 2004, published 2006).
Structures can show the parent of a compound that is named as a salt.

Conditions: as methyl supplier in feed

In the case of `C[N+](C)(C)CC(=O)O` [Betaine anhydrous, 2-(Trimethylammonio) ethanoic acid, hydroxide, inner salt], the “effective value of organism relative to 50% choline chloride” value (relative to 50% choline chloride) is given as 1.8 times and the “effective value of organism relative to DL-methionine” value (relative to DL-methionine) is given as 3 times.
